17 molecules from patent US7064190B1, “Antigen-specific, activated T lymphocytes, detection and use” (Roche Diagnostics GmbH, priority 1994, dated 2006) can be followed below.

Common to all, as to assay type: cell-based, human
The subject of experiment [1] is T cell line 6/10. As to the kind of experiment: Proliferation test with variants of the peptide 5G1 using the T cell line 6/10. The conditions noted are these: for Stimulation index: TCL 6/10, variants of peptide 5G1. The protocol:
In order to elucidate the core structure of the stimulating peptide 5G1, proliferation tests were carried out with various variants of this peptide using the T cell line 6/10 (see Table 4).
A test with a first series of 20 mer variants is intended to ascertain whether amino acids which border on the 5G1 structure at the C- or N-terminus play a role in the recognition by the T cell line 6/10. […] A 6 amino acid shift towards the N-terminus leads to a loss in stimulation capacity.
A test with a second series of peptide variants examines the influence of a shortening at the C-terminus.
The object of a test with a third series of peptide variants was to define the N-terminus of the minimum stimulation-active peptide. If the amino acids leucine (L) and proline (P) are removed from a 18 mer with an intact C-terminus, this leads to a strong decrease of the stimulation index. The N-terminus is thus defined by L and P. If the […] is shortened further by H and F this also leads to a loss of stimulation activity.

The test system of experiment [2] is T cell line 6/7. Briefly: Proliferation test with peptides derived from the H-GAD sequence, T cell line 6/7. The conditions noted are these: 10 μg/ml individual peptides from pools 7 and 11, FIG. 5. The protocol:
(§1) Autologous PBLs or PBLs of a normal donor which are identical with regard to the HLA class II antigens are used as stimulator cells. The PBLs are pre-incubated with antigen as described in paragraph 2, irradiated with 4000 rad and distributed in 96 well plates (100 000 cells/well).
(§2) After 3–4 days at 37° C./7% CO2, 1 μCi ^3H-thymidine is added and incubated for a further 16–20 hours. Afterwards the cells are transferred onto a glass fibre filter by means of a cell harvester instrument and the incorporated radioactivity is determined in a β counter.
(§3) T cell lines that had been expanded by means of at least 4 restimulation cycles and which reacted with SW-GAD in the proliferation test were additionally tested with overlapping peptides of H-GAD. The object of these experiments is to define the epitopes of H-GAD that are recognized by the T cells. For this, overlapping 20 mer peptides of H-GAD are firstly synthesized (overlapping region 10 amino acids, total of 59 different peptides).
(§4) […] The further treatment of these stimulator cells is carried out as described in section 3a.
(§5) Subsequently 6000–20,000 T cells are added per microculture well. The further procedure is analogous to that described in section 3b.

The test system of experiment [3] is T cell line 6/10. As to the kind of experiment: Proliferation test with peptides derived from the H-GAD sequence, T cell line 6/10. The conditions noted are these: 10 μg/ml individual peptides from pools 7 and 11, FIG. 6. The protocol: as §1, §2, §3, §4, §5
Experiment [4] has as its system T cell line 6/7. As to the kind of experiment: T cell proliferation with peptides using PBLs of various haplotypes as antigen-presenting cells, TCL 6/7. The conditions noted are these: for SI (stimulation index): TCL 6/7. The protocol:
(§6) The experimental procedure is analogous to example 1.3. […] The proliferation tests were carried out using the autoantigenic peptides 5G1 (corresponding to amino acids 266–285 of human GAD65) and 5F3 (corresponding to amino acids 306–325 of human GAD65).
(§7) T cell proliferation after stimulation with the peptides 5G1 and 5F3 using PBLs with various haplotypes as antigen-presenting cells

In experiment [5] the test system is T cell line 6/10. Briefly: T cell proliferation with peptides using PBLs of various haplotypes as antigen-presenting cells, TCL 6/10. The conditions noted are these: for proliferation in the presence of the DR B1 allele 0401: T cell line 6/10; for SI (stimulation index): TCL 6/10. The method, then: as §6, §7
Experiment [6] has as its system T cell line 6/7. As to the kind of experiment: Proliferation test with SW-GAD, T cell line 6/7. The conditions noted are these: stimulator PBLs pulsed with SW-GAD. The protocol: (§8) The first restimulation is carried out on the 14th day after the beginning of the primary stimulation. For this, in comparison to the primary stimulation, double the number of autologous PBLs is isolated by means of Ficoll and adjusted in culture medium to a cell concentration of 2×10^6/ml. One half of these stimulator cells is incubated for 2 hours/37° C./7% CO2 with the antigen SW-GAD (final concentration 5 μg/ml) (antigen pulse). The other half is incubated under the same conditions without antigen and only with culture medium. Subsequently all stimulator cells are irradiated with 4000 rad. The stimulator cells are then distributed (100 000 cells/well) in 96 well round-bottom plates in such a way that a well with stimulator cells containing antigen is always adjacent to a well with stimulator cells without antigen.
(§9) All tests are carried out in at least duplicate preparations.
(§10) Autologous PBLs or PBLs of a normal donor which are identical with regard to the HLA class II antigens are used as stimulator cells. […]
as §2

Experiment [7] relates to T cell line 6/10. As to the kind of experiment: Proliferation test with SW-GAD, T cell line 6/10. The following applies: stimulator PBLs pulsed with SW-GAD. The protocol:
as §8, §9, §10, §2

Setting [8] is: APC donor four (DR B1 0301/0401).
The mark [9] stands for this setting: APC donor one (DR B1 1302/0401).
[10] abbreviates: APC donor three (DR B1 0301/0404).
Where [11] appears, read: APC donor two (DR B1 0101/1601).

In the case of AALPRLIAFTSEHSHF [SEQ ID NO:10], in the experiment with T cell line 6/10 [1], the Stimulation index is given as 2.9.

Regarding “ERGKMIPSDLERRILEAKQK (ERGKMIPSDLERRILEAKQK) [5F3, corresponding to amino acids 306–325 of human GAD 65]”, the “proliferation with individual peptides” value in the experiment with T cell line 6/7 [2] and in the experiment with T cell line 6/10 [3] was “smaller but significant proliferation” in each case. In addition, the figures for the “proliferation in the presence of the DR B1 allele 0401” value in the experiment on T cell line 6/7 [4] (T cell line 6/7) and in the experiment with T cell line 6/10 [5] were “proliferation in the presence of the DR B1 allele 0401 is found” and “proliferates”, respectively. The “SI (stimulation index)” value in the experiment on T cell line 6/7 [4] (APC donor 19 (DR B1 0301/0401)) was 3.1; in the experiment on T cell line 6/7 [4] (setting [8]), 3.8; in the experiment on T cell line 6/7 [4] (setting [9]), 7.0; in the experiment with T cell line 6/7 [4] (setting [10]), 0.6; with T cell line 6/7 [4] (setting [11]), 1.2; in the experiment on T cell line 6/10 [5] (APC donor 19 (DR B1 0301/0401)) it was 2.8. Further, the “SI (stimulation index)” value came to 3.8 in the experiment on T cell line 6/10 [5] (setting [8]), 6.5 with T cell line 6/10 [5] (setting [9]), 1.5 in the experiment with T cell line 6/10 [5] (setting [10]) and 1.4 in the experiment with T cell line 6/10 [5] (setting [11]).

Molecule AALPRLIAFTSEHSHFSL [SEQ ID NO:9] came in with a Stimulation index in the experiment on T cell line 6/10 [1] of 4.5.

In turn, GMAALPRLIAFT [SEQ ID NO:14] yielded a Stimulation index in the experiment with T cell line 6/10 [1] of 1.0.

As for AALPRLIAFTSEHS [SEQ ID NO:11], the Stimulation index in the experiment with T cell line 6/10 [1] came out at 0.7.

As for “GMAALPRLIAFTSEHSHFSL [5G1, corresponding to amino acids 266–285 of human GAD 65]”, the “proliferation with individual peptides” value in the experiment on T cell line 6/7 [2] and in the experiment on T cell line 6/10 [3] was “significant proliferation” throughout. Further, the Stimulation index in the experiment with T cell line 6/10 [1] was 5.4. In addition, the “recognition in association with the alleles DR B1 0101 or/and 1601” value in the experiment with T cell line 6/7 [4] (T cell line 6/7) was “recognizes”. Besides, the “SI (stimulation index)” value in the experiment with T cell line 6/7 [4] (APC donor 19 (DR B1 0301/0401)) was found to be 45.7; in the experiment with T cell line 6/7 [4] (setting [8]), 55.0; in the experiment with T cell line 6/7 [4] (setting [9]), 67.8; in the experiment on T cell line 6/7 [4] (setting [10]) it was 0.9; with T cell line 6/7 [4] (setting [11]), 28.6; in the experiment on T cell line 6/10 [5] (APC donor 19 (DR B1 0301/0401)) it was 8.5. For the same molecule, the “SI (stimulation index)” value in the experiment with T cell line 6/10 [5] (setting [8]) is listed as 6.0; in the experiment on T cell line 6/10 [5] (setting [9]), 22.6; with T cell line 6/10 [5] (setting [10]) it was 1.5; with T cell line 6/10 [5] (setting [11]), 2.2.

Take RLIAFTSEHSHFSL [SEQ ID NO:16]: the Stimulation index in the experiment with T cell line 6/10 [1] was determined as 1.4.

In turn, RLIAFTSEHSHFSLKKGAAA [SEQ ID NO:7] yielded a Stimulation index with T cell line 6/10 [1] of 3.2.

The molecule ALPRLIAFTSEHSHFSLKKG [SEQ ID NO:6] came in with a Stimulation index in the experiment with T cell line 6/10 [1] of 3.0.

With LPRLIAFTSEHS [SEQ ID NO:18], the Stimulation index in the experiment on T cell line 6/10 [1] is 0.4.

Turning to “GMAALPRLIAFTSEHSHFSLKKGAA (GMAALPRLIAFTSEHSHFSLKKGAA) [amino acid sequence (I), amino acid residues 266–290 of the human GAD 65]”, the “proliferation in the presence of the DR B1 allele 0401 and 0101 or/and 1601” value with T cell line 6/7 [4] (T cell line 6/7) is on record as “proliferates”. Moreover, the “proliferation in the presence of the DR B1 allele 0401” value in the experiment with T cell line 6/10 [5] was “proliferates”.

Molecule AALPRLIAFTSE [SEQ ID NO:12] gave a Stimulation index with T cell line 6/10 [1] of 0.6.

For GMAALPRLIAFTSE [SEQ ID NO:13], in the experiment on T cell line 6/10 [1], the Stimulation index came to 0.8.

Turning to LPRLIAFTSEHSHF [SEQ ID NO:17], the “stimulation capacity of 5G1 variants” value in the experiment with T cell line 6/10 [1] (T cell line 6/10) was “minimum peptide that can still stimulate”. In addition, the Stimulation index in the experiment with T cell line 6/10 [1] stood at 4.6.

For LPRLIAFTSEHSHFSLKK [SEQ ID NO:15], in the experiment on T cell line 6/10 [1], the Stimulation index worked out at 3.2.

In turn, PEVKEKGMAALPRLIAFTSE [SEQ ID NO:8] gave a Stimulation index with T cell line 6/10 [1] of 0.6.

B1: SW-GAD: porcine GAD (glutamic acid decarboxylase from pig brain) used as antigen (protein)
chain: MASSTPSSSATSSNAGPDPNTTNLRPTTYDTWCGVAHGCTRKLGLKICGFLQRTNSLEEKSRLVSAFKERQSSKNLLSCENSDRDGRFRRTETDFSNLFARDLLPAKNGEEQTVQFLLEVVDILLNYVRKTFDRSTKVLDFHHPHQLLEGMEGFNLELSDHPESLEQILVDCRDTLKYGVRTGHPRFFNQLSTGLDIIGLAGEWLTSTANTNMFTYEIAPVFVLMEQITLKKMREIVGWSNKDGDGIFSPGGAISNMYSIMAARYKYFPEVKTKGMAAVPKLVLFTSEHSHYSIKKAGAALGFGTDNVILIKCNERGKIIPADLEAKILEAKQKGYIPLYVNATAGTTVYGAFDPIQEIADICEKYNLWLHVDAAWGGGLLMSRKHRHKLSGIERADSVTWNPHKMMGVLLQCSAILVKEKGILQGCNQMCAGYLFQPDKQYDVSYDTGDKAIQCGRHVDIFKFWLMWKAKGTVGFENQINKCLELAEYLYAKIKNREEFEMVFDGEPEHTNVCFWYIPQSLRGVPDSPERREKLHRVAPKIKALMMESGTTMVGYQPQGDKANFFRMVISNPAATQSDIDFLIEEIERLGQDL
Regarding B1, the “cpm SW-GAD (3H-thymidine incorporation)” value is given as 9373 cpm with T cell line 6/7 [6] and 5222 cpm in the experiment with T cell line 6/10 [7].
